From patent US9084424B2, “N-benzyl heterocyclic carboxamides” (BAYER INTELLECTUAL PROPERTY GMBH, priority 2010, dated 2015) come the findings set out here.

Data set [1] in a line: log P by HPLC on reversed-phase column (EEC Directive 79/831 Annex V.A8). The class given is physicochemical. The following applies: 0.1% aqueous formic acid and acetonitrile, linear gradient 10% to 90% acetonitrile. Summed up: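 Compounds are eluted at 40° C using 0.1% aqueous formic acid and acetonitrile in a linear gradient from 10% to 90% acetonitrile. Unbranched alkan-2-ones bearing 3 to 16 carbons with known log P serve as calibrants. Each log P is interpolated linearly from retention times of the two bracketing alkanones.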

Another data set deals with Leptosphaeria nodorum. The data set is described as follows: In vivo preventive test on Leptosphaeria nodorum (wheat). Particulars: preventive spray, 500 ppm of active ingredient, evaluated 7-9 days after inoculation. On the procedure:
In Vivo Preventive Test on Leptosphaeria nodorum (Wheat)
Solvent: 49 parts by weight of N,N-dimethylacetamide
(§1) Emulsifier: 1 part by weight of alkylaryl polyglycol ether
(§2) To produce a suitable preparation of active compound, 1 part by weight of active compound is mixed with the stated amounts of solvent and emulsifier, and the concentrate is diluted with water to the desired concentration.
To test for preventive activity, young plants are sprayed with a preparation of active compound at the stated rate of application. One day after this treatment, the plants are inoculated with an aqueous spore suspension of Leptosphaeria nodorum. The plants remain for 48 hours in an incubation cabinet at 22° C. and a relative atmospheric humidity of 100%. Then the plants are placed in a greenhouse at a temperature of approximately 22° C. and a relative atmospheric humidity of approximately 90%.
The test is evaluated 7-9 days after the inoculation. 0% means an efficacy which corresponds to that of the untreated control, while an efficacy of 100% means that no disease is observed.
Under these conditions, good (at least 70%) to excellent protection (at least 95%) is observed at a dose of 500 ppm of active ingredient with the following compounds from table D: […]

In the next data set the test system is Alternaria solani. The data set is described as follows: In vivo preventive test on Alternaria solani (tomato). The following applies: preventive spray, 500 ppm of active ingredient, evaluated 7 days after inoculation. The method, then: In Vivo Preventive Test on Alternaria Solani (Tomato)
(§3) Solvent: 49 parts by weight of N,N-dimethylformamide
(§4) Emulsifier: 1 part by weight of alkylarylpolyglycolether
as §2
To test for preventive activity, young plants are sprayed with the preparation of active compound at the stated rate of application. One day after this treatment, the plants are inoculated with an aqueous spore suspension of Alternaria solani. The plants remain for one day in an incubation cabinet at approximately 22° C. and a relative atmospheric humidity of 100%. Then the plants are placed in an incubation cabinet at approximately 20° C. and a relative atmospheric humidity of 96%.
The test is evaluated 7 days after the inoculation. 0% means an efficacy which corresponds to that of the untreated control while an efficacy of 100% means that no disease is observed.

Another data set relates to Pyrenophora teres. The data set is described as follows: In vivo preventive test on Pyrenophora teres (barley). The following applies: preventive spray, 500 ppm of active ingredient, evaluated 7-9 days after inoculation. On the procedure:
In Vivo Preventive Test on Pyrenophora teres (Barley)
Solvent: 49 parts by weight of N,N-dimethylacetamid
as §1, §2
To test for preventive activity, young plants are sprayed with the preparation of active compound at the stated rate of application. One day after this treatment, the plants are inoculated with an aqueous spore suspension of Pyrenophora teres. The plants remain for 48 hours in an incubation cabinet at 22° C. and a relative atmospheric humidity of 100%. Then the plants are placed in a greenhouse at a temperature of approximately 20° C. and a relative atmospheric humidity of approximately 80%.
The test is evaluated 7-9 days after the inoculation. 0% means an efficacy which corresponds to that of the untreated control while an efficacy of 100% means that no disease is observed.

The test system of the next data set is Sphaerotheca fuliginea. As to the kind of experiment: In vivo preventive test on Sphaerotheca fuliginea (cucumber). Particulars: preventive spray, 500 ppm of active ingredient, evaluated 7 days after inoculation. On the procedure:
In Vivo Preventive Test on Sphaerotheca fuliginea (Cucumber)
as §3, §4, §2
To test for preventive activity, young plants are sprayed with the preparation of active compound at the stated rate of application. After the spray coating has dried on, the plants are inoculated with an aqueous spore suspension of Sphaerotheca fuliginea. The plants are then placed in a greenhouse at approximately 23° C. and a relative atmospheric humidity of approximately 70%.
The test is evaluated 7 days after the inoculation. 0% means an efficacy which corresponds to that of the untreated control, while an efficacy of 100% means that no disease is observed.

Setting [2] is: HPLC on reversed-phase column (C 18), 40° C.
Setting [3] is: HPLC, reversed-phase C 18, 40° C.

As a reminder, the logP is the decadic logarithm of the partition coefficient of the neutral form, usually between octanol and water. The low end stands for a more hydrophilic compound, the high end for a more lipophilic compound. As for `CC(c1ccc(Oc2ccccc2)cc1)N(C)C(=O)c1c(C(F)F)nn(C)c1F` (racemic) [Example 154], the logP in data set [1] (setting [2]) was 3.59. Besides, the Efficacy came to 70% in the data set with Leptosphaeria nodorum, 95% in the data set on Alternaria solani and 100% in the data set with Pyrenophora teres.
For the molecule `CC(c1ncc(Cl)cc1Cl)N(C(=O)c1c(C(F)F)nn(C)c1F)C1CCCC1` (stereo not shown) [Example 187], the logP in data set [1] (setting [2]) is reported as 4.44. Also, the results for the Efficacy in the data set on Leptosphaeria nodorum and with Pyrenophora teres were 80% and 90%, respectively.
`Cn1nc(C(F)F)c(C(=O)N(Cc2ccc(Cl)cc2Cl)C2CCC2)c1Cl` [Example 30]: the logP in data set [1] (setting [3]) was found to be 4.39. Moreover, the Efficacy in the data set on Leptosphaeria nodorum is given as 90%; with Pyrenophora teres, 100%.
For `Cn1nc(C(F)F)c(C(=O)N(Cc2ccc(Cl)cc2Cl)C2CCC2)c1F` [Example 31] the same measures were 4.19, 80% and 100%.
The molecule `CC(c1cc(Cl)ccc1Cl)N(C)C(=O)c1c(C(F)F)nn(C)c1Cl` (stereo not shown) [Example 55] came in with a log partition coefficient (logP) in data set [1] (setting [3]) of 3.33. For the same molecule, the Efficacy in the data set on Alternaria solani is 95%; in the data set on Pyrenophora teres it was 100%; in the data set on Sphaerotheca fuliginea it was 83%.
For `CCc1ccccc1CN(CC)C(=O)c1c(C(F)F)nn(C)c1F` [Example 13], the lipophilicity (logP) in data set [1] (setting [3]) was determined as 3.13. For the same molecule, the Efficacy in the data set with Alternaria solani was determined as 95%; in the data set on Pyrenophora teres, 95%; with Sphaerotheca fuliginea it was 90%.
`CC(c1cc(Cl)cc(Cl)c1)N(C)C(=O)c1c(C(F)F)nn(C)c1Cl` (stereo not shown) [Example 116]: in data set [1] (setting [2]), the logP came out at 3.65. Moreover, the results for the Efficacy with Alternaria solani, in the data set with Pyrenophora teres and in the data set with Sphaerotheca fuliginea were 95%, 100% and 75%, respectively.
On to `Cn1nc(C(F)F)c(C(=O)NCc2ccc(C(C)(C)C)cc2)c1Cl` [Example 136], for which, in data set [1] (setting [2]), the logP is listed as 3.58. The Efficacy in the data set with Leptosphaeria nodorum came to 70%.
On to `CON(C(=O)c1c(C(F)F)nn(C)c1F)C(C)c1ccc(Cl)cc1Cl` (stereo not shown) [Example 45], for which the lipophilicity (logP) in data set [1] (setting [3]) turned out to be 3.65. Besides, the results for the Efficacy in the data set on Leptosphaeria nodorum, in the data set on Pyrenophora teres and in the data set on Sphaerotheca fuliginea were 95%, 100% and 100%, respectively.
For the molecule `CC(C)c1ccccc1CNC(=O)c1c(C(F)F)nn(C)c1Cl` [Example 79], in data set [1] (setting [3]), the logP amounted to 3.19. Besides, the values for the Efficacy in the data set on Leptosphaeria nodorum and in the data set with Pyrenophora teres were 94% and 95%, respectively.
Turning to `CC(C)c1ccccc1CN(CC(F)F)C(=O)c1c(C(F)F)nn(C)c1F` [Example 78], the logP in data set [1] (setting [3]) turned out to be 3.49. Besides, the figures for the Efficacy in the data set on Alternaria solani, with Pyrenophora teres and with Sphaerotheca fuliginea were 100%, 100% and 93%, respectively.
`Cn1nc(C(F)F)c(C(=O)NC(c2ccc(Cl)cc2Cl)C(F)(F)F)c1F` (stereo not shown) [Example 40] registered a log partition coefficient (logP) in data set [1] (setting [3]) of 4.19. The figures for the Efficacy in the data set on Alternaria solani, in the data set on Pyrenophora teres and in the data set with Sphaerotheca fuliginea were 94%, 95% and 83%, respectively.
For `CC(NC(=O)c1c(C(F)F)nn(C)c1Cl)c1ccccc1C(F)(F)F` (stereo not shown) [Example 82] the same measures were 3.11, 100%, 95% and 94%.
Consider `CC(NC(=O)c1c(C(F)F)nn(C)c1Cl)c1ccc(Cl)cc1Cl` (stereo not shown) [Example 33], for which the logP in data set [1] (setting [3]) was 4.39. Further, the Efficacy with Alternaria solani is given as 95%; in the data set with Pyrenophora teres, 100%; in the data set on Sphaerotheca fuliginea it was 96%.
The molecule `CN(Cc1ncc(Cl)cc1Cl)C(=O)c1c(C(F)F)nn(C)c1F` [Example 179] gave a logP in data set [1] (setting [2]) of 2.53. Further, the values for the Efficacy with Leptosphaeria nodorum, in the data set with Alternaria solani and with Pyrenophora teres were 70%, 90% and 100%, respectively.
With `CC(NC(=O)c1c(C(F)F)nn(C)c1F)c1ccc(-c2ccccc2)cc1` (racemic) [Example 169], the logP in data set [1] (setting [2]) turned out to be 3.46. In addition, the Efficacy in the data set with Alternaria solani came to 94%; in the data set on Pyrenophora teres it was 100%; in the data set with Sphaerotheca fuliginea it was 89%.
Molecule `CCN(Cc1c(Cl)cccc1C(F)(F)F)C(=O)c1c(C(F)F)nn(C)c1F` [Example 91] returned a logP in data set [1] (setting [3]) of 3.22. Besides, the values for the Efficacy with Alternaria solani, with Pyrenophora teres and in the data set with Sphaerotheca fuliginea were 100%, 95% and 95%, respectively.
Consider `CCC(NC(=O)c1c(C(F)F)nn(C)c1Cl)c1ccc(Cl)cc1Cl` (stereo not shown) [Example 191], for which the logP in data set [1] (setting [2]) turned out to be 3.79. In addition, the values for the Efficacy in the data set on Alternaria solani, with Pyrenophora teres and in the data set on Sphaerotheca fuliginea were 95%, 100% and 100%, respectively.
Regarding `CCc1ccccc1CN(C)C(=O)c1c(C(F)F)nn(C)c1F` [Example 15], the logP in data set [1] (setting [3]) amounted to 2.81. In addition, the Efficacy is 95% in the data set on Alternaria solani, 95% in the data set on Pyrenophora teres and 83% in the data set with Sphaerotheca fuliginea.
With `CCc1ccccc1CN(C(=O)c1c(C(F)F)nn(C)c1F)C1CCC1` [Example 12], the logP in data set [1] (setting [3]) stood at 3.63. Also, the Efficacy was 90% in the data set on Alternaria solani, 100% in the data set with Pyrenophora teres and 95% with Sphaerotheca fuliginea.
In data set [1] (setting [2]), `Cn1nc(C(F)F)c(C(=O)NCc2ccc(C(C)(C)C)cc2)c1F` [Example 135] returned a logP of 3.42. Besides, the Efficacy in the data set with Leptosphaeria nodorum was determined as 75%.
As to `CC(NC(=O)c1c(C(F)F)nn(C)c1F)c1ccccc1C(F)(F)F` (stereo not shown) [Example 84], the log partition coefficient (logP) in data set [1] (setting [3]) stood at 2.96. Moreover, the Efficacy amounted to 100% in the data set on Alternaria solani, 100% with Pyrenophora teres and 90% with Sphaerotheca fuliginea.
For `CC(NC(=S)c1c(C(F)F)nn(C)c1Cl)c1ccc(Cl)cc1Cl` (stereo not shown) [Example 44], the logP in data set [1] (setting [3]) was found to be 3.99. Further, the Efficacy with Leptosphaeria nodorum was determined as 89%; in the data set with Alternaria solani, 100%; in the data set on Pyrenophora teres, 100%.
`CCC(NC(=O)c1c(C(F)F)nn(C)c1F)c1ccc(Cl)cc1Cl` (stereo not shown) [Example 192] had a lipophilicity (logP) in data set [1] (setting [2]) of 3.61. For the same molecule, the Efficacy in the data set on Alternaria solani is on record as 95%; in the data set with Pyrenophora teres, 100%; in the data set on Sphaerotheca fuliginea, 100%.
The molecule `CC(NC(=O)c1c(C(F)F)nn(C)c1Cl)c1ccccc1Cl` (racemic) [Example 20] registered a logP in data set [1] (setting [3]) of 2.92. Moreover, the figures for the Efficacy with Alternaria solani, in the data set on Pyrenophora teres and in the data set with Sphaerotheca fuliginea were 95%, 95% and 94%, respectively.
Take `CN(Cc1ccccc1[Si](C)(C)C)C(=O)c1c(C(F)F)nn(C)c1F` [Example 103]: the logP in data set [1] (setting [3]) came out at 3.78. Also, the results for the Efficacy in the data set with Alternaria solani, in the data set on Pyrenophora teres and in the data set with Sphaerotheca fuliginea were 90%, 70% and 91%, respectively.
Molecule `CC(NC(=O)c1c(C(F)F)nn(C)c1Cl)c1ncc(C(F)(F)F)cc1Cl` (racemic) [Example 177] yielded a logP in data set [1] (setting [2]) of 3.48. Besides, the Efficacy with Alternaria solani was 90%; with Pyrenophora teres, 100%; in the data set on Sphaerotheca fuliginea, 93%.
As for `Cn1nc(C(F)F)c(C(=O)NC(C)(C)c2cc(Cl)cc(Cl)c2)c1Cl` [Example 112], the logP in data set [1] (setting [2]) is on record as 3.73. Moreover, the Efficacy is listed as 80% in the data set on Alternaria solani, 95% in the data set on Pyrenophora teres and 95% in the data set on Sphaerotheca fuliginea.
In data set [1] (setting [3]), `CC(NC(=O)c1c(C(F)F)nn(C)c1Cl)c1cc(Cl)ccc1Cl` (stereo not shown) [Example 50] yielded a lipophilicity (logP) of 4.39. The Efficacy with Alternaria solani is given as 95%; in the data set on Pyrenophora teres it was 95%; in the data set with Sphaerotheca fuliginea it was 98%.
For `Cn1nc(C(F)F)c(C(=O)NC2(c3ccc(Cl)cc3Cl)CC2)c1F` [Example 38], the log partition coefficient (logP) in data set [1] (setting [3]) worked out at 3.89. Moreover, the Efficacy in the data set on Alternaria solani is 94%; in the data set on Pyrenophora teres, 95%; with Sphaerotheca fuliginea, 89%.
